In ChEMBL document CHEMBL3817834, “Scaffold morphing leading to evolution of 2,4-diaminoquinolines and aminopyrazolopyrimidines as inhibitors of the ATP synthesis pathway” (Medchemcomm, 2016):
Converted amounts (≈) assume the structure as drawn. The source made the active and inactive calls. No cut-off for these calls is given here.

What was measured:
[1] = system: Mycobacterium tuberculosis; test: Bactericidal activity against Mycobacterium tuberculosis under aerobic condition after 7 days by microdilution method; format: functional; conditions: 168 h
[2] = system: Mycobacterium tuberculosis; test: Antimycobacterial activity against Mycobacterium tuberculosis under aerobic condition after 7 days by microdilution method; format: functional; conditions: 168 h
[3] = system: Mycobacterium tuberculosis; test: Antimycobacterial activity against drug sensitive Mycobacterium tuberculosis isolate 25618 by turbidometric method; format: functional
[4] = Inhibition of ATP synthase in Mycobacterium smegmatis inverted membrane vesicles assessed as reduction in oxidative phosphorylation of ADP incubated for 60 mins in presence of NADH by luciferin/luciferase coupled […] assay; parameters: species or system Mycolicibacterium smegmatis
[5] = system: Mycobacterium tuberculosis; test: Bactericidal activity against Mycobacterium tuberculosis under hypoxic condition after 7 days by microdilution method; format: functional; conditions: 168 h
[6] = system: Mycobacterium tuberculosis; test: Antimycobacterial activity against drug sensitive Mycobacterium tuberculosis ATCC 27294 by turbidometric method; format: functional
[7] = system: Mycobacterium tuberculosis; test: Antimycobacterial activity against drug sensitive Mycobacterium tuberculosis Beijing (E-47/94) by turbidometric method; format: functional
[8] = system: Mycobacterium tuberculosis; test: Antimycobacterial activity against drug sensitive Mycobacterium tuberculosis Erdman by turbidometric method; format: functional; conditions: Erdman = ATCC 35801
[9] = system: Mycobacterium tuberculosis; test: Ratio of MBC for Mycobacterium tuberculosis under hypoxic condition to MIC for Mycobacterium tuberculosis under aerobic condition; format: functional
[10] = Ratio of IC50 for ATP synthase in Mycobacterium smegmatis inverted membrane vesicles to IC50 for Mycobacterium bovis BCG
[11] = system: Mycobacterium tuberculosis; test: Antimycobacterial activity against drug sensitive Mycobacterium tuberculosis Harlingen by turbidometric method; format: functional
[12] = Selectivity index, ratio of IC50 for bovine heart mitochondrial ATP synthase to IC50 for ATP synthase in Mycobacterium smegmatis inverted membrane vesicles
[13] = system: Mus musculus; test: T>MIC in Mycobacterium tuberculosis H37Rv infected Balb/c mouse at 100 to 200 mg/kg, po qd dosed 6 days per week for 2 weeks by LC-MS analysis
[14] = system: Mycobacterium tuberculosis; test: Bactericidal activity against Mycobacterium tuberculosis under replicating condition assessed as reduction in colony forming units at 3.125 to 200 uM by time kill kinetic study; format: functional, organism-based; conditions: TDE = time-dependent effect
[15] = system: Mycobacterium tuberculosis; test: Antimycobacterial activity against Mycobacterium tuberculosis H37Rv infected in Balb/c mouse assessed as reduction in CFU in lungs at 100 to 200 mg/kg, po qd dosed 6 days per week for 2 weeks; format: functional, organism-based
[16] = Inhibition of bovine heart mitochondrial ATP synthase assessed as reduction in oxidative phosphorylation of ADP in presence of NADH by ATP bioluminescence assay; parameters: species or system Bos taurus
[17] = system: Mycobacterium tuberculosis; test: Antimycobacterial activity against Mycobacterium tuberculosis H37Rv infected in Balb/c mouse assessed as log reduction in CFU in lungs at 10 mg/kg, po qd dosed 6 days per week for 2 weeks; format: functional

Structure (SMILES) | MBC [1] [µM] | MIC [2] [µM] | MIC80 [3] [µM] | IC50 [4] [nM] | MBC [5] [µM] | MIC80 [6] [µM] | MIC80 [7] [µM] | MIC80 [8] [µM] | MIC80 [11] [µM] | Ratio IC50 [12] | other results
COc1nc2ccc(Br)cc2cc1[C@@H](c1ccccc1)[C@@](O)(CCN(C)C)c1cccc2ccccc12 [BEDAQUILINE] | 1.6 (≈ 0.889 µg/mL) | 0.2 (≈ 0.111 µg/mL) | < 2 | 5 | 4 (≈ 2.22 µg/mL) | 0.2 (≈ 0.111 µg/mL) | < 2 | < 2 | < 2 |  | Ratio [9]: 15; Ratio IC50 [10]: 100
CC[C@@H](CO)NCCN[C@@H](CC)CO [ETHAMBUTOL] |  |  | 9.8 (≈ 2 µg/mL) |  |  | 9.8 (≈ 2 µg/mL) | 9.8 (≈ 2 µg/mL) | 9.8 (≈ 2 µg/mL) | 9.8 (≈ 2 µg/mL) |  | 
COc1cc2nc(N3CCC(c4ccccc4Cl)C3)cc(Nc3cnc(NCCN(C)C)c(F)c3)c2cc1OC (stereo not given) |  | 1.6 (≈ 0.904 µg/mL) |  | 100 |  |  |  |  |  | 51 | 
COc1cc2nc(NCCC3CCOCC3)nc(Nc3ncc(C(C)C)s3)c2cc1OC | 25 (≈ 11.4 µg/mL) | 6.2 (≈ 2.84 µg/mL) |  | 100 | 50 (≈ 22.9 µg/mL) |  |  |  |  |  | Ratio [9]: 15
COc1cc2nc(NCCC3CCOCC3)cc(Nc3cnc(OCCN(C)C)c(F)c3)c2cc1OC |  | 200 (≈ 103 µg/mL) |  | 3700 |  |  |  |  |  | 1 | 
CN(C)CCOc1ncc(Nc2cc(-c3ccccc3)nc3cc(-c4ccc(F)cc4)nn23)cc1F | 28 (≈ 13.6 µg/mL) | 6.2 (≈ 3.02 µg/mL) | 6.3 (≈ 3.07 µg/mL) | 450 | 100 (≈ 48.7 µg/mL) | 6.3 (≈ 3.07 µg/mL) | 6.3 (≈ 3.07 µg/mL) | 6.3 (≈ 3.07 µg/mL) | 6.3 (≈ 3.07 µg/mL) | 20 | T>MIC [13]: 24 h; Activity [14]: tde; Ratio [9]: 15; Activity [15]: Active; Ratio IC50 [10]: 100
N#CC(C#N)=NNc1cccc(Cl)c1 [CARBONYL CYANIDE M-CHLOROPHENYLHYDRAZONE] |  |  |  | 4800 |  |  |  |  |  |  | 
CCOc1ncc(Nc2nc(NCCC3CCOCC3)nc3cc(OC)c(OC)cc23)cc1F | 19 (≈ 8.96 µg/mL) | 1.9 (≈ 0.896 µg/mL) |  | 600 | 3 (≈ 1.41 µg/mL) |  |  |  |  | 2.3 | Ratio [9]: 15
COc1cc2nc(NCCC3CCOCC3)nc(Nc3cnc(OCCN(C)C)c(F)c3)c2cc1OC |  | 25 (≈ 12.9 µg/mL) |  | 900 |  |  |  |  |  | > 28 | IC50 [16]: > 25000 nM
COc1cc2nc(NCCC3CCOCC3)nc(Nc3cc(C(C)(C)C)n(C)n3)c2cc1OC | 25 (≈ 11.7 µg/mL) | 6.2 (≈ 2.91 µg/mL) |  | 100 | 50 (≈ 23.4 µg/mL) |  |  |  |  | 52 | Ratio [9]: 15; Ratio IC50 [10]: 100
CC(Nc1nc(N2CCCC2)nc2ccccc12)c1ccccc1 (stereo not given) |  | 50 (≈ 15.9 µg/mL) |  | 2500 |  |  |  |  |  | < 0.04 | 
CCOc1ncc(Nc2cc(NCCC3CCOCC3)nc3cc(OC)c(OC)cc23)cc1F |  | 6.2 (≈ 2.92 µg/mL) |  | 800 |  |  |  |  |  | 3.2 | Ratio IC50 [10]: 100
CC1COc2c(N3CCN(C)CC3)c(F)cc3c(=O)c(C(=O)O)cn1c23 (stereo not given) [OFLOXACIN] |  |  | 0.7 (≈ 0.253 µg/mL) |  |  | 0.7 (≈ 0.253 µg/mL) | 0.7 (≈ 0.253 µg/mL) | 0.7 (≈ 0.253 µg/mL) | 0.7 (≈ 0.253 µg/mL) |  | 
CC(Nc1nc(N2CCCCC2)nc2ccccc12)c1ccccc1 (stereo not given) |  | 25 (≈ 8.31 µg/mL) |  | 2100 |  |  |  |  |  | 2.6 | IC50 [16]: 2600 nM
CN(C)CCOc1ncc(Nc2cc(-c3ccccc3)nc3cc(-c4ccc(F)cc4)[nH]c23)cc1F |  | 0.8 (≈ 0.388 µg/mL) | 3.1 (≈ 1.51 µg/mL) | 100 |  | 3.1 (≈ 1.51 µg/mL) | 3.1 (≈ 1.51 µg/mL) | 3.1 (≈ 1.51 µg/mL) | 3.1 (≈ 1.51 µg/mL) | 13 | Ratio IC50 [10]: 100
NNC(=O)c1ccncc1 [ISONIAZID] |  |  | 0.2 (≈ 0.0274 µg/mL) |  |  | 0.2 (≈ 0.0274 µg/mL) | 0.2 (≈ 0.0274 µg/mL) | 0.2 (≈ 0.0274 µg/mL) | 0.2 (≈ 0.0274 µg/mL) |  | Activity [17]: >2 deltalog10CFU
CN[C@@H]1[C@H](O[C@H]2[C@H](O[C@H]3[C@H](O)[C@@H](O)[C@H](N=C(N)N)[C@@H](O)[C@@H]3N=C(N)N)O[C@@H](C)[C@]2(O)C=O)O[C@@H](CO)[C@H](O)[C@H]1O [STREPTOMYCIN] |  |  | 0.3 (≈ 0.174 µg/mL) |  |  | 0.3 (≈ 0.174 µg/mL) | 0.3 (≈ 0.174 µg/mL) | 0.3 (≈ 0.174 µg/mL) | 0.3 (≈ 0.174 µg/mL) |  | 
COc1cc2nc(NCCc3cccnc3)nc(Nc3cnc(OC)c(C)c3)c2cc1OC |  | > 200 |  | 100 |  |  |  |  |  | 96 | 
CN(C)CCOc1ncc(Nc2cc(C(F)(F)F)nc3cc(-c4ccc(F)cc4)nn23)cc1F |  | 12.5 (≈ 5.98 µg/mL) |  | 500 |  |  |  |  |  | 19 | Ratio IC50 [10]: 100
COc1cc2nc(NCCc3ccccc3Cl)cc(Nc3cnc(OCCN(C)C)c(F)c3)c2cc1OC |  | 3.1 (≈ 1.67 µg/mL) |  | 60 |  |  |  |  |  | 79 | 
CCOc1ncc(Nc2cc(NCCC3CCOCC3)nc3ccnn23)cc1F |  | > 50 |  | 21000 |  |  |  |  |  | > 1.2 | 
CCOc1ncc(Nc2nc(OCCC3CCOCC3)nc3cc(OC)c(OC)cc23)cc1F |  | > 200 |  | 25000 |  |  |  |  |  |  | 
COc1cc2nc(NCCC3CCOCC3)nc(Nc3cnc(OC)c(C)c3)c2cc1OC | 25 (≈ 11.3 µg/mL) | 3.1 (≈ 1.41 µg/mL) |  | 400 | 13 (≈ 5.9 µg/mL) |  |  |  |  | 10 | Ratio [9]: 15
CO[C@H]1/C=C/O[C@@]2(C)Oc3c(C)c(O)c4c(O)c(c(/C=N/N5CCN(C)CC5)c(O)c4c3C2=O)NC(=O)/C(C)=C\C=C\[C@H](C)[C@H](O)[C@@H](C)[C@@H](O)[C@@H](C)[C@H](OC(C)=O)[C@@H]1C [RIFAMPIN] |  |  | 0.04 (≈ 0.0329 µg/mL) |  |  | 0.04 (≈ 0.0329 µg/mL) | 0.04 (≈ 0.0329 µg/mL) | 0.04 (≈ 0.0329 µg/mL) | 0.04 (≈ 0.0329 µg/mL) |  | 
COc1cc2nc(N3CCC(c4ccccc4Cl)C3)cc(Nc3cnc(OCCN(C)C)c(F)c3)c2cc1OC (stereo not given) | 54 (≈ 30.6 µg/mL) | 1.6 (≈ 0.906 µg/mL) | 3.1 (≈ 1.75 µg/mL) | 40 | 200 (≈ 113 µg/mL) | 6.3 (≈ 3.57 µg/mL) | 3.1 (≈ 1.75 µg/mL) | 3.1 (≈ 1.75 µg/mL) | 3.1 (≈ 1.75 µg/mL) | 128 | Ratio IC50 [10]: 100
Cn1nc(Nc2nc(NCCC3CCOCC3)nc3ccccc23)cc1C(C)(C)C |  | 6.2 (≈ 2.53 µg/mL) |  | 1700 |  |  |  |  |  | 4.5 | 
COc1cc2nc(N3CCC(c4ccccc4Cl)C3)cc(Nc3cnc(OCC4CCCN4C)c(F)c3)c2cc1OC (stereo not given) | 50 (≈ 29.6 µg/mL) | 6.2 (≈ 3.67 µg/mL) |  | 60 | 50 (≈ 29.6 µg/mL) |  |  |  |  | 44 | Ratio [9]: 15
CN(C)CCOc1ncc(Nc2cc(N3CCC(c4ccccc4Cl)C3)nc3cc(F)c(F)cc23)cc1F (stereo not given) | 38 (≈ 20.6 µg/mL) | 3.1 (≈ 1.68 µg/mL) | 3.1 (≈ 1.68 µg/mL) | 100 | 50 (≈ 27.1 µg/mL) | 3.1 (≈ 1.68 µg/mL) | 3.1 (≈ 1.68 µg/mL) | 3.1 (≈ 1.68 µg/mL) | 3.1 (≈ 1.68 µg/mL) | 19 | Ratio [9]: 15; Activity [15]: Active; Ratio IC50 [10]: 100
